From PubChem BioAssay AID2060348 (Molecular Pharmacology Branch, DTP, NCI, 2025) come the findings set out here.

This experiment deals with 885724-159-R-J1-PDC spheroids viability. The experiment in a line: Anticancer human tumor 885724-159-R-J1-PDC patient-derived pancreatic adenocarcinoma cell line growth inhibition [TAK]. To be noted: spheroids with HUVEC and MSC; for viability, T/C: stronger effect = lower value. The text has this:
Combinatorial screen of targeted agents with TAK-243 and ipatasertib in multi-cell type tumor spheroids
A high-throughput screen of multi-cell type tumor spheroids was designed to identify active combinations of targeted small molecules and TAK-243 or ipatasertib. Complex spheroids include a stromal component modeled by human endothelial cells (HUVEC) and fibroblasts modeled by human mesenchymal stem cells (MSCs). The concentration ranges selected for each drug and investigational agent were based upon clinically achievable concentrations if the clinical Cmax of the agent was known.
Compounds. The drugs and investigational agents: TAK-243 (785004), ipatasertib (767898), everolimus (733504), selumetinib (741078), bortezomib (756655), trametinib (758246), ixazomib (758254), vemurafenib (761431), dabrafenib (764134), sapanisertib (764658), alpelisib (765974), and copanlisib (816437), were obtained from the National Cancer Institute (NCI) Developmental Therapeutics Program Chemical Repository. The FDA-approved anticancer drug set is available from the NCI Developmental Therapeutics Program. […] The stock solutions were prepared in dimethyl sulfoxide (DMSO, Sigma-Aldrich, St. Louis, MO, cat. D2650) at 800-fold the tested concentration and stored at -70 degrees C prior to their use. All drugs and investigational agents were tested over a range starting from a high concentration at or near the clinical Cmax and decreasing in half-log increments. If the clinical Cmax for an agent had not been determined, the highest concentration tested was 10 microM.
NCI60 Cell Culture. NCI60 cell lines were obtained from the NCI Developmental Therapeutics Program Tumor Repository. For each lot of cells, the Repository performed Applied Biosystems AmpFLSTR Identifiler testing with PCR amplification to confirm consistency with the published Identifier STR profile for each cell line. Cells were kept in continuous culture for no more than 20 passages. The optimal seeding densities for each of the cell lines at each time point assessed were determined prior to performing the concentration response studies. Briefly, the NCI60 human tumor lines were grown as monolayers in RPMI 1640 medium supplemented with 10% FBS and 2 mmol/L L-glutamine.
An additional 2 lines were from the NCI60 cell line panel including melanomas, MALME-3M and SK-MEL-2. Pooled donor human umbilical vein endothelial cells (HUVEC, Lonza, cat. CC-2519) and human mesenchymal stem cells (hMSC, Lonza, cat. PT-2501) were purchased from Lonza (Walkersville, MD).
PDMR cell lines were grown in complete medium (DC medium): Dulbecco's modified Eagle's medium (DMEM)/F12 supplemented with 5% fetal bovine serum (FBS), 2 mM L-glutamine, 100 U/mL penicillin and 100 µg/ml streptomycin, 0.4 µg/ml hydrocortisone, 10 ng/ml epidermal growth factor (EGF) recombinant human protein, 24 µg/mL adenine, and 0.1 mg/mL primocin. During culture from frozen stock vials, PDMR cells were cultured in the same medium containing 10 µM Y-27632 (see Table 3). The PDCs were cultured in complete DMEM/F12 media without 10 microM Y-27632 dihydrochloride for at least two passages prior to the screen. The pooled donor HUVEC and hMSC were cultured in endothelial cell growth medium 2 (PromoCell, Heidelberg, Germany, cat. C-22011) and mesenchymal stem cell growth medium 2 (PromoCell, cat. C-28009), respectively. For all experiments, HUVEC and hMSC were used at passages </=5.
For the pre-screen, cell seeding densities were determined from a titration spanning the range from 5,000 to 313 cells per well. The mct-spheroids including 60% malignant cells, 25% HUVEC and 15% MSC dispensed as a mixture into U-bottom Ultra-Low Attachment 384-well plates (Corning, NY)
High-throughput Drug Combination Screening.
Prior to their inoculation into 384-well plates, malignant cells, HUVEC, and hMSC were removed from T flasks using TrypLE express (Thermo Fisher Scientific, cat. 12605036) and harvested by centrifugation for 5 min at 233 x g. […]

“And” between values parts separate entries of the source, which are not always exact repeats. Equal entries are not always repeated.
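Note: spheroids exposed to drugs for seven days.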

As a reminder, the IC50 is the midpoint of a concentration-inhibition curve. As a reminder, the viability, T/C is the result in the treated group divided by that in the control group, in per cent. As for `CC(C)n1nc(-c2ccc3oc(N)nc3c2)c2c(N)ncnc21` + CC(C)NCC(C(=O)N1CCN(c2ncnc3c2C(C)CC3O)CC1)c1ccc(Cl)cc1, the IC50 reads like this: (curve of first compound, second compound 0.3 µM) 18.5 nM; (curve of first compound, second compound 0.949 µM) 6.88 nM; (curve of first compound, second compound 3 µM) 3.15 nM; (curve of first compound, second compound 9.49 µM) below 0.316 nM; (curve of first compound, second compound 30 µM) below 0.316 nM. Also, the viability, T/C is 66.2% (second compound 0.3 µM, first compound 0.000316 µM); 64.1% (second compound 0.3 µM, first compound 0.001 µM); 56.8% (second compound 0.3 µM, first compound 0.00316 µM); 53.9% (second compound 0.3 µM, first compound 0.01 µM); 48.6% (second compound 0.3 µM, first compound 0.0316 µM); 37.1% (second compound 0.3 µM, first compound 0.1 µM). Besides, the viability, T/C (second compound 0.949 µM, first compound 0.000316 µM) was 57.2%; the viability, T/C (second compound 0.949 µM, first compound 0.001 µM) was 63.5%; the viability, T/C (second compound 0.949 µM, first compound 0.00316 µM) is 54%; the viability, T/C (second compound 0.949 µM, first compound 0.01 µM) was 47.5%; the viability, T/C (second compound 0.949 µM, first compound 0.0316 µM) is 38.4%; the viability, T/C (second compound 0.949 µM, first compound 0.1 µM) is 33.6%. In addition, the viability, T/C is, setting by setting: (second compound 3 µM, first compound 0.000316 µM) 58.1%; (second compound 3 µM, first compound 0.001 µM) 61.8%; (second compound 3 µM, first compound 0.00316 µM) 47.7%; (second compound 3 µM, first compound 0.01 µM) 38.8%; (second compound 3 µM, first compound 0.0316 µM) 31.5%; (second compound 3 µM, first compound 0.1 µM) 28.6%. The viability, T/C was 47.4% (second compound 9.49 µM, first compound 0.000316 µM); 45.6% (second compound 9.49 µM, first compound 0.001 µM); 38.3% (second compound 9.49 µM, first compound 0.00316 µM); 30.9% (second compound 9.49 µM, first compound 0.01 µM); 25.5% (second compound 9.49 µM, first compound 0.0316 µM); 23% (second compound 9.49 µM, first compound 0.1 µM). In addition, the viability, T/C was 32% (second compound 30 µM, first compound 0.000316 µM); 29.5% (second compound 30 µM, first compound 0.001 µM); 30.2% (second compound 30 µM, first compound 0.00316 µM); 20.5% (second compound 30 µM, first compound 0.01 µM); 19% (second compound 30 µM, first compound 0.0316 µM); 16.4% (second compound 30 µM, first compound 0.1 µM).

With `COc1c(OCCCN2CCOCC2)ccc2c3n(c(=NC(=O)c4cnc(N)nc4)nc12)CCN3`, the viability, T/C (compound 0.00316 µM) is 92.1% and 84.8%; the viability, T/C (compound 0.01 µM) is 69.9% and 64.1%; the viability, T/C (compound 0.0316 µM) is 47.1% and 47.6%; the viability, T/C (compound 0.1 µM) is 27.9% and 22.6%; the viability, T/C (compound 0.316 µM) was 14% and 13.8%; the viability, T/C (compound 1 µM) is 12.1% and 12%. The 50% inhibitory concentration (IC50) (curve of compound) was 26.7 nM and 23.3 nM.

With `CC(C)CC(NC(=O)CNC(=O)c1cc(Cl)ccc1Cl)B1OC(=O)CC(CC(=O)O)(C(=O)O)O1` (centres undefined), the viability, T/C by setting is: (compound 0.000316 µM) 98.6% and 104%; (compound 0.001 µM) 101% and 96.8%; (compound 0.00316 µM) 99.5% and 103%; (compound 0.01 µM) 89.3% and 91.4%; (compound 0.0316 µM) 19.3% and 15.8%; (compound 0.1 µM) 1.47% and 1.1%. Besides, the IC50 (curve of compound) is 19.1 nM and 18.8 nM.
